According to patent USRE38117E1, “Trioxane dimer compound having antiproliferative and antitumor activities” (Hauser, Inc., priority 1995, dated 2003):
Like-named read-outs stand apart in the source and are kept apart here.

Columns and labels:
Format in all cases: cell-based
SK-MEL-2 = experiment: NCI 60 cell line screen (SRB), Melanoma; details: SK-MEL-2 (Melanoma)
K-562 = experiment: NCI 60 cell line screen (SRB), Leukemia; details: K-562 (Leukemia)
NCI-H23 = experiment: NCI 60 cell line screen (SRB), Non-Small Cell Lung Cancer
EKVX = experiment: as above
786-0 = experiment: NCI 60 cell line screen (SRB), Renal Cancer; details: 786-0 (Renal Cancer)
MOLT-4 = experiment: NCI 60 cell line screen (SRB), Leukemia; details: for Log10GI50 / Log10LC50 / Log10TGI: MOLT-4 (Leukemia)
MALME-3M = experiment: NCI 60 cell line screen (SRB), Melanoma; details: MALME-3M (Melanoma)
MDA-MB-435 = experiment: NCI 60 cell line screen (SRB), Breast Cancer; details: MDA-MB-435 (Breast Cancer)
NCI-H226 = experiment: NCI 60 cell line screen (SRB), Non-Small Cell Lung Cancer
HCT-116 = experiment: NCI 60 cell line screen (SRB), Colon Cancer; details: HCT-116 (Colon Cancer)
SK-MEL-5 = experiment: NCI 60 cell line screen (SRB), Melanoma; details: SK-MEL-5 (Melanoma)
M14 = experiment: NCI 60 cell line screen (SRB), Melanoma
MDA-MB231/ATCC = experiment: NCI 60 cell line screen (SRB), Breast Cancer
NCI-H460 = experiment: NCI 60 cell line screen (SRB), Non-Small Cell Lung Cancer
HL-60(TB) = experiment: NCI 60 cell line screen (SRB), Leukemia
SF-295 = experiment: NCI 60 cell line screen (SRB), CNS Cancer; details: SF-295 (CNS Cancer)
HOP-62 = experiment: NCI 60 cell line screen (SRB), Non-Small Cell Lung Cancer; details: HOP-62 (Non-Small Cell Lung Cancer)
OVCAR-4 = experiment: NCI 60 cell line screen (SRB), Ovarian Cancer; details: OVCAR-4 (Ovarian Cancer)
SNB-75 = experiment: NCI 60 cell line screen (SRB), CNS Cancer; details: SNB-75 (CNS Cancer)
SK-OV-3 = experiment: NCI 60 cell line screen (SRB), Ovarian Cancer; details: SK-OV-3 (Ovarian Cancer)
A498 = experiment: NCI 60 cell line screen (SRB), Renal Cancer
SR = experiment: NCI 60 cell line screen (SRB), Leukemia
UACC-62 = experiment: NCI 60 cell line screen (SRB), Melanoma; details: UACC-62 (Melanoma)
PC-3 = experiment: NCI 60 cell line screen (SRB), Prostate Cancer; details: PC-3 (Prostate Cancer)
CCRF-CEM = experiment: NCI 60 cell line screen (SRB), Leukemia
NCI-H522 = experiment: NCI 60 cell line screen (SRB), Non-Small Cell Lung Cancer
UACC-257 = experiment: NCI 60 cell line screen (SRB), Melanoma; details: UACC-257 (Melanoma)
HCC-2998 = experiment: NCI 60 cell line screen (SRB), Colon Cancer; details: HCC-2998 (Colon Cancer)
IGROVI = experiment: NCI 60 cell line screen (SRB), Ovarian Cancer
TK-10 = experiment: NCI 60 cell line screen (SRB), Renal Cancer; details: TK-10 (Renal Cancer)
OVCAR-5 = experiment: NCI 60 cell line screen (SRB), Ovarian Cancer; details: OVCAR-5 (Ovarian Cancer)
HT29 = experiment: NCI 60 cell line screen (SRB), Colon Cancer

COC1OC2(C)CCC3CCCC(CCOCCC4CCCC5CCC6(C)OOC45C(OC)O6)C31OO2 (centres unmarked) [Compound 6, Trioxane Ether Dimer]
−6.48 M: Log10GI50 (HL-60(TB))
−5.37 M: Log10GI50 (IGROVI)
−4.92 M: Log10GI50 (HOP-62)
−4.04 M: Log10LC50 (HCC-2998)
4.50 M: Log10TGI (MOLT-4; listed as ether dimer)
−4.61 M: Log10TGI (CCRF-CEM)
−4.00 M: Log10LC50 (PC-3)
>−4.00 M: Log10LC50 (SK-MEL-2) | Log10LC50 (K-562) | Log10TGI (K-562) | Log10LC50 (NCI-H23) | Log10TGI (NCI-H23) | Log10LC50 (EKVX) | Log10TGI (EKVX) | Log10LC50 (786-0) | Log10LC50 (MOLT-4; listed as Ether Dimer) | Log10TGI (MOLT-4; listed as Ether Dimer) | Log10LC50 (MALME-3M) | Log10TGI (MALME-3M) | Log10LC50 (MDA-MB-435) | Log10TGI (MDA-MB-435) | Log10LC50 (NCI-H226) | Log10TGI (NCI-H226) | Log10LC50 (HCT-116) | Log10TGI (HCT-116) | Log10LC50 (M14) | Log10TGI (M14) | Log10LC50 (MDA-MB231/ATCC) | Log10TGI (MDA-MB231/ATCC) | Log10LC50 (NCI-H460) | Log10TGI (NCI-H460) | Log10LC50 (HL-60(TB)) | Log10LC50 (SF-295) | Log10TGI (SF-295) | Log10LC50 (HOP-62) | Log10TGI (HOP-62) | Log10LC50 (OVCAR-4) | Log10TGI (OVCAR-4) | Log10LC50 (SNB-75) | Log10TGI (SNB-75) | Log10LC50 (SK-OV-3) | Log10TGI (SK-OV-3) | Log10GI50 (A498) | Log10LC50 (A498) | Log10TGI (A498) | Log10LC50 (SR) | Log10LC50 (UACC-62) | Log10TGI (UACC-62) | Log10LC50 (CCRF-CEM) | Log10LC50 (NCI-H522) | Log10LC50 (UACC-257) | Log10TGI (UACC-257) | Log10LC50 (IGROVI) | Log10LC50 (TK-10) | Log10LC50 (OVCAR-5) | Log10TGI (OVCAR-5) | Log10LC50 (HT29) | Log10TGI (HT29)
−5.69 M: Log10GI50 (MALME-3M)
−4.75 M: Log10TGI (PC-3)
greater than −400. M: Log10LC50 (MOLT-4; listed as either dimer)
−6.46 M: Log10GI50 (UACC-62)
−6.75 M: Log10GI50 (K-562)
−5.93 M: Log10TGI (SR)
−6.27 M: Log10GI50 (MOLT-4) | Log10GI50 (CCRF-CEM)
−5.68 M: Log10GI50 (UACC-257)
−4.13 M: Log10TGI (SK-MEL-2) | Log10TGI (IGROVI)
−5.86 M: Log10GI50 (SK-MEL-2)
−5.60 M: Log10GI50 (TK-10)
−5.65 M: Log10GI50 (786-0)
−5.36 M: Log10GI50 (NCI-H226)
−5.94 M: Log10GI50 (HCC-2998)
−7.19 M: Log10GI50 (SR)
−6.24 M: Log10GI50 (HT29)
−4.88 M: Log10TGI (TK-10)
−5.56 M: Log10GI50 (EKVX)
−6.38 M: Log10GI50 (MDA-MB-435)
−4.90 M: Log10TGI (SK-MEL-5) | Log10TGI (HCC-2998)
−6.13 M: Log10GI50 (NCI-H522)
−5.77 M: Log10TGI (HL-60(TB))
−5.59 M: Log10GI50 (M14)
−7.39 M: Log10GI50 (SK-MEL-5)
−6.98 M: Log10GI50 (HCT-116)
−7.85 M: Log10GI50 (PC-3)
−5.25 M: Log10GI50 (MDA-MB231/ATCC)
−6.23 M: Log10GI50 (NCI-H460)
−4.76 M: Log10TGI (NCI-H522)
−5.61 M: Log10GI50 (SF-295)
−4.53 M: Log10TGI (786-0)
−4.15 M: Log10LC50 (SK-MEL-5)
−6.34 M: Log10GI50 (NCI-H23)
−5.11 M: Log10GI50 (OVCAR-4)
−6.39 M: Log10GI50 (OVCAR-5)

C[C@@H]1CC[C@H]2[C@@H](C)C(=O)O[C@@H]3O[C@@]4(C)CC[C@@H]1[C@]32OO4 [QHS, 3,6,9-trimethyl-9,10b-epidioxyperhydropyrano[4,3,2-jk]benzoxepin-2-one, reference compound]
−4.73 M: Log10GI50 (MOLT-4)
−4.17 M: Log10GI50 (PC-3)
>−4.00 M: Log10LC50 (SK-MEL-2) | Log10TGI (SK-MEL-2) | Log10LC50 (K-562) | Log10GI50 (NCI-H23) | Log10LC50 (NCI-H23) | Log10TGI (NCI-H23) | Log10GI50 (EKVX) | Log10LC50 (EKVX) | Log10TGI (EKVX) | Log10GI50 (786-0) | Log10LC50 (786-0) | Log10TGI (786-0) | Log10LC50 (MALME-3M) | Log10GI50 (NCI-H226) | Log10LC50 (NCI-H226) | Log10TGI (NCI-H226) | Log10LC50 (HCT-116) | Log10TGI (HCT-116) | Log10LC50 (SK-MEL-5) | Log10TGI (SK-MEL-5) | Log10LC50 (M14) | Log10TGI (M14) | Log10LC50 (MDA-MB231/ATCC) | Log10GI50 (NCI-H460) | Log10LC50 (NCI-H460) | Log10TGI (NCI-H460) | Log10LC50 (HL-60(TB); HL-60(TB) (Leukemia)) | Log10GI50 (HOP-62) | Log10LC50 (HOP-62) | Log10TGI (HOP-62) | Log10GI50 (SNB-75) | Log10LC50 (SNB-75) | Log10TGI (SNB-75) | Log10GI50 (A498) | Log10LC50 (A498) | Log10TGI (A498) | Log10GI50 (SR) | Log10LC50 (SR) | Log10TGI (SR) | Log10GI50 (UACC-62) | Log10LC50 (UACC-62) | Log10TGI (UACC-62) | Log10LC50 (PC-3) | Log10TGI (PC-3) | Log10GI50 (UACC-257) | Log10LC50 (UACC-257) | Log10TGI (UACC-257) | Log10GI50 (HCC-2998) | Log10LC50 (HCC-2998) | Log10TGI (HCC-2998) | Log10LC50 (IGROVI) | Log10TGI (IGROVI) | Log10GI50 (TK-10) | Log10LC50 (TK-10) | Log10TGI (TK-10) | Log10GI50 (OVCAR-5) | Log10LC50 (OVCAR-5) | Log10TGI (OVCAR-5) | Log10GI50 (HT29) | Log10LC50 (HT29) | Log10TGI (HT29)
−4.06 M: Log10TGI (MALME-3M)
−4.20 M: Log10GI50 (MDA-MB231/ATCC)
−4.10 M: Log10GI50 (SK-MEL-5)
greater than 10^−4 molar: drug concentration necessary to achieve primary growth inhibition (percentage growth +50) (MOLT-4; MOLT-4, read from dose response curves FIGS. 10a-10e)
−4.26 M: Log10GI50 (HL-60(TB); HL-60(TB) (Leukemia))
−4.33 M: Log10GI50 (K-562)
−4.31 M: Log10GI50 (IGROVI)
−4.00 M: Log10TGI (K-562) | Log10GI50 (HCT-116) | Log10TGI (MDA-MB231/ATCC) | Log10TGI (HL-60(TB); HL-60(TB) (Leukemia))
